These results are taken from patent publication US20230265151A1, “GIP/GLP1 CO-AGONIST COMPOUNDS” (priority 2020, published 2023).

Assay type in all cases: cell-based
One assay deals with T1, hGIPR (Homo sapiens, UniProt P48546).
T1 construct: expressed in transfected cells
T1 sequence (P48546 22-466): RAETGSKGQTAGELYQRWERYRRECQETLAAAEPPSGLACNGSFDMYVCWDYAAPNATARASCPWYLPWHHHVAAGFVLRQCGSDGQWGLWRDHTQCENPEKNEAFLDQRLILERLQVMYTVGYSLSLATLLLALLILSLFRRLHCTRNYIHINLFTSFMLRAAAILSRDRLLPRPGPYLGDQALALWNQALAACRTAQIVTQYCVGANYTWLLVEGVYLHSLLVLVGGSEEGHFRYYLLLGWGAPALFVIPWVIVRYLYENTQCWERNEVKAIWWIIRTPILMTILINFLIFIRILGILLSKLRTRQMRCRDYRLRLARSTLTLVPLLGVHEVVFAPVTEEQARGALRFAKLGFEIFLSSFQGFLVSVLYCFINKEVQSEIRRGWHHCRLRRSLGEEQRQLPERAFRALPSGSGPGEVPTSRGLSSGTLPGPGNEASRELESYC
The assay can be described thus: Functional cAMP formation (HTRF) in HEK-293 clonal cells expressing hGIPR, 0.1% bovine casein, without or with 1.0% human serum albumin. The conditions noted are these: for EC50: geometric mean. The essentials: (§1)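 Cells were stimulated with peptide for 30 min at 37° C, then lysed in buffer carrying cAMP-d2 and anti-cAMP Eu3+-cryptate for a competitive HTRF read after at least 60 min at room temperature. The 665/620 nm ratio was converted to nM cAMP against a standard curve.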

A further assay addresses T2, hGCGR (Homo sapiens, UniProt P47871).
T2 construct: expressed in transfected cells
As to the kind of experiment: Functional cAMP formation (HTRF) in HEK-293 clonal cells expressing hGCGR, 0.1% bovine casein, without or with 1.0% human serum albumin. Conditions: geometric mean. The essentials:
as §1
On the technique in general: Cyclic AMP is a second messenger, typically raised through Gs and lowered through Gi signalling.

The next assay has as its target hGLP-1R (Homo sapiens, UniProt P43220). As to the kind of experiment: Functional cAMP formation (HTRF) in HEK-293 clonal cells expressing hGLP-1R, 0.1% bovine casein, without or with 1.0% human serum albumin. Set-up: expressed in transfected cells. Conditions: for EC50: geometric mean. The procedure, abridged:
as §1

Setting [1] is: 0.1% bovine casein and 1.0% human serum albumin, 37° C., read-out: hGIPR EC50, nM (SEM, n).
Where [2] appears, read: HEK293, 0.1% bovine casein and 1.0% human serum albumin, 37° C., percent of maximal response to GIP(1-42)NH2, read-out: hGIPR Emax, % ± SEM.
Where [3] appears, read: HEK293, percent of maximal response to GIP(1-42)NH2, 37° C., 0.1% bovine casein, arithmetic mean, read-out: hGIPR Emax, % ± SEM.
The mark [4] stands for this setting: 0.1% bovine casein and 1.0% human serum albumin, 37° C., read-out: hGCGR EC50, nM (SEM, n).
[5] abbreviates: cAMP, incubated at 37° C., 0.1% bovine casein (no human serum albumin), read-out: hGCGR EC50, nM (SEM, n).

Read-outs that look alike come from different tables or passages of the source. Bounds are passed on as bounds.

hGLP-1R, sequence (P43220 24-463): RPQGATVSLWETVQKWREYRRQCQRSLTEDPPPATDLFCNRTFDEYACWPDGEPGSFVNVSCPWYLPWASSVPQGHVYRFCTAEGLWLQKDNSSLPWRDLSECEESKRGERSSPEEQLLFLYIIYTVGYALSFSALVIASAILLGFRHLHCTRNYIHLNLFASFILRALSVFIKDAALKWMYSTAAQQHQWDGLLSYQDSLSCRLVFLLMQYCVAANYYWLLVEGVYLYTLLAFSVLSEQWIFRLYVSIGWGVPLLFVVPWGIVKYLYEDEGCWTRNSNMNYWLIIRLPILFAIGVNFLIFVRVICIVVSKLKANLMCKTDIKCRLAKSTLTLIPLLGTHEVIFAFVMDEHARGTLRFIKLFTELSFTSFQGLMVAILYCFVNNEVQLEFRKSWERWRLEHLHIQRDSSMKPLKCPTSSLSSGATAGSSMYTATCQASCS
T2 sequence (P47871 26-477): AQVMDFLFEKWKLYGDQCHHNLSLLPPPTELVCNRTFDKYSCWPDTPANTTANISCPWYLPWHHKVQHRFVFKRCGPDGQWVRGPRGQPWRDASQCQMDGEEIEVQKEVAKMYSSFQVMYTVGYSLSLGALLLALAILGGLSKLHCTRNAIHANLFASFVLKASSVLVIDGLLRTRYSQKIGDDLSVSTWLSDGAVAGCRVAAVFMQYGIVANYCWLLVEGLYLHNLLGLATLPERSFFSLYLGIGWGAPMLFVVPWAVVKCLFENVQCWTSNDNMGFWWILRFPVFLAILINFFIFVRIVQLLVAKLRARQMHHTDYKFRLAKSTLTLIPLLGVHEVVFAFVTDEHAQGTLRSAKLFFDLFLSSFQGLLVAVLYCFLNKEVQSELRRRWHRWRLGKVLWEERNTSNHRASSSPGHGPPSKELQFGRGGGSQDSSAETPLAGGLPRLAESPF

One may read the Emax as the size of the effect at its maximum, as opposed to the concentration needed. The term EC50 denotes the midpoint of the concentration-response curve. For `CC[C@H](C)[C@H](NC(=O)[C@H](CC(C)C)NC(=O)[C@](C)(Cc1ccc(O)cc1)NC(=O)[C@@H](CCC(=O)O)NC(=O)[C@@H](NC(=O)[C@H](Cc1ccccc1)NC(=O)[C@H](CCC(=O)O)NC(=O)C(C)(C)NC(=O)[C@H](CCC(N)=O)NC(=O)[C@H](C)NC(=O)[C@H](CCCCNC(=O)COCCOCCNC(=O)COCCOCCNC(=O)CC[C@H](NC(=O)CCCCCCCCCOc1ccc(C(=O)O)cc1)C(=O)O)NC(=O)[C@H](CCCN)NC(=O)[C@H](CC(=O)O)NC(=O)[C@H](CC(C)C)NC(=O)[C@](C)(CC(C)C)NC(=O)[C@@H](NC(=O)C(C)(C)NC(=O)[C@H](Cc1ccc(O)cc1)NC(=O)[C@H](CC(=O)O)NC(=O)[C@H](CO)NC(=O)[C@@H](NC(=O)[C@](C)(Cc1ccccc1F)NC(=O)[C@@H](NC(=O)CNC(=O)[C@H](CCC(=O)O)NC(=O)C(C)(C)NC(=O)[C@@H](N)Cc1ccc(O)cc1)[C@@H](C)O)[C@@H](C)O)[C@@H](C)CC)[C@@H](C)CC)C(=O)N[C@@H](CCCCNC(=O)COCCOCCNC(=O)COCCOCCNC(=O)CC[C@H](NC(=O)CCCCCCCCCOc1ccc(C(=O)O)cc1)C(=O)O)C(=O)NCC(=O)NCC(=O)N1CCC[C@H]1C(=O)N[C@@H](CO)C(=O)N[C@@H](CO)C(=O)NCC(=O)N[C@@H](C)C(=O)N1CCC[C@H]1C(=O)N1CCC[C@H]1C(=O)N1CCC[C@H]1C(=O)N[C@@H](CO)C(N)=O` [Example 237], the Emax at hGIPR (HEK293, read-out: hGIPR Emax, % ± SEM, 0.1% bovine casein and 1.0% human serum albumin, 37° C., percent of maximal response to GIP(1-42)NH2) was found to be 93.1%; on hGLP-1R (HEK293, read-out: hGLP-1R Emax, % ± SEM, 0.1% bovine casein and 1.0% human serum albumin, 37° C., percent of maximal response to GLP-1(7-36)NH2), 113%. Besides, the EC50 on hGIPR (hGIPR EC50, nM (SEM, n), cAMP, incubated at 37° C., 0.1% bovine casein (no human serum albumin)) is 0.0186 nM; at hGCGR (hGCGR EC50, nM (SEM, n), 0.1% bovine casein and 1.0% human serum albumin, 37° C.), over 9950 nM; on hGCGR (hGCGR EC50, nM (SEM, n), cAMP, incubated at 37° C., 0.1% bovine casein (no human serum albumin)) it was over 9950 nM; on hGLP-1R (hGLP-1R EC50, nM (SEM, n), cAMP, incubated at 37° C., 0.1% bovine casein (no human serum albumin)) it was 0.633 nM.

As to `CC[C@H](C)[C@H](NC(=O)[C@H](CC(C)C)NC(=O)[C@](C)(Cc1ccc(O)cc1)NC(=O)[C@@H](CCC(=O)O)NC(=O)[C@@H](NC(=O)[C@H](Cc1ccccc1)NC(=O)[C@H](CCC(=O)O)NC(=O)C(C)(C)NC(=O)[C@H](CCC(N)=O)NC(=O)[C@H](C)NC(=O)[C@H](CCCCNC(=O)COCCOCCNC(=O)CC[C@H](NC(=O)CCCCCCCCCCCCC(=O)O)C(=O)O)NC(=O)[C@H](CCCN)NC(=O)[C@H](CC(=O)O)NC(=O)[C@H](CC(C)C)NC(=O)[C@](C)(CC(C)C)NC(=O)[C@@H](NC(=O)[C@H](CO)NC(=O)[C@H](Cc1ccncc1)NC(=O)[C@H](CC(=O)O)NC(=O)[C@H](CO)NC(=O)[C@@H](NC(=O)[C@](C)(Cc1ccccc1F)NC(=O)[C@@H](NC(=O)CNC(=O)[C@H](CCC(=O)O)NC(=O)C(C)(C)NC(=O)[C@@H](N)Cc1ccc(O)cc1)[C@@H](C)O)[C@@H](C)O)[C@@H](C)CC)[C@@H](C)CC)C(=O)N[C@@H](CCC(=O)O)C(=O)NCC(=O)NCC(=O)N[C@@H](CCCCNC(=O)COCCOCCNC(=O)CC[C@H](NC(=O)CCCCCCCCCCCCC(=O)O)C(=O)O)C(=O)N[C@@H](CO)C(=O)N[C@@H](CO)C(=O)NCC(=O)N[C@@H](C)C(=O)N1CCC[C@H]1C(=O)N1CCC[C@H]1C(=O)N1CCC[C@H]1C(=O)N[C@@H](CO)C(N)=O` [Example 11], the EC50 on hGIPR (setting [1]) is 1.22 nM; on hGIPR (cAMP, incubated at 37° C., 0.1% bovine casein (no human serum albumin), read-out: hGIPR EC50, nM (SEM, n)) it was 0.0135 nM; at hGCGR (setting [4]), over 9950 nM; on hGCGR (setting [5]) it was over 9950 nM; on hGLP-1R (0.1% bovine casein and 1.0% human serum albumin, 37° C., read-out: hGLP-1R EC50, nM (SEM, n)), 34.5 nM. The results for the Emax on hGIPR (setting [2]) and at hGIPR (setting [3]) were 90 ± 2.71% and 97.7 ± 2.82%, respectively.

Regarding `CC[C@H](C)[C@H](NC(=O)[C@H](CC(C)C)NC(=O)[C@](C)(Cc1ccc(O)cc1)NC(=O)[C@@H](CCC(=O)O)NC(=O)[C@@H](NC(=O)[C@H](Cc1ccccc1)NC(=O)[C@H](CCC(=O)O)NC(=O)C(C)(C)NC(=O)[C@H](CCC(N)=O)NC(=O)[C@H](C)NC(=O)[C@H](CCCCNC(=O)COCCOCCNC(=O)COCCOCCNC(=O)CC[C@H](NC(=O)CCCCCCCCCCCCC(=O)O)C(=O)O)NC(=O)[C@H](CCCN)NC(=O)[C@H](CC(=O)O)NC(=O)[C@H](CC(C)C)NC(=O)[C@](C)(CC(C)C)NC(=O)[C@@H](NC(=O)[C@H](CO)NC(=O)[C@](C)(Cc1ccccc1F)NC(=O)[C@H](CC(=O)O)NC(=O)[C@H](CO)NC(=O)[C@@H](NC(=O)[C@](C)(Cc1ccccc1F)NC(=O)[C@@H](NC(=O)CNC(=O)[C@H](CCC(=O)O)NC(=O)C(C)(C)NC(=O)[C@@H](N)Cc1ccc(O)cc1)[C@@H](C)O)[C@@H](C)O)[C@@H](C)CC)[C@@H](C)CC)C(=O)N[C@@H](CCC(=O)O)C(=O)NCC(=O)NCC(=O)N[C@@H](CCCCNC(=O)COCCOCCNC(=O)COCCOCCNC(=O)CC[C@H](NC(=O)CCCCCCCCCCCCC(=O)O)C(=O)O)C(=O)N[C@@H](CO)C(=O)N[C@@H](CO)C(=O)NCC(=O)N[C@@H](C)C(=O)N1CCC[C@H]1C(=O)N1CCC[C@H]1C(=O)N1CCC[C@H]1C(=O)N[C@@H](CO)C(N)=O` [Example 87], the EC50 at hGIPR (setting [1]) was 4.84 nM; at hGCGR (setting [4]), over 9950 nM; on hGCGR (setting [5]), over 9950 nM; on hGLP-1R (cAMP, incubated at 37° C., 0.1% bovine casein (no human serum albumin), read-out: hGLP-1R EC50, nM (SEM, n)) it was 1.34 nM. Besides, the Emax is 89.2% at hGIPR (setting [2]) and 84.7% on hGIPR (setting [3]).

As for `CCCCCCCCCCCC(=O)N[C@@H](CCC(=O)NCCOCCOCC(=O)NCCOCCOCC(=O)NCCCC[C@H](NC(=O)CNC(=O)CNC(=O)[C@H](CCC(=O)O)NC(=O)[C@@H](NC(=O)[C@H](CC(C)C)NC(=O)[C@](C)(Cc1ccccc1)NC(=O)[C@@H](CCC(=O)O)NC(=O)[C@@H](NC(=O)[C@](C)(Cc1ccccc1)NC(=O)[C@H](CCC(=O)O)NC(=O)C(C)(C)NC(=O)[C@H](CCC(N)=O)NC(=O)[C@H](C)NC(=O)[C@H](CCCCNC(=O)COCCOCCNC(=O)COCCOCCNC(=O)CC[C@H](NC(=O)CCCCCCCCCCC)C(=O)O)NC(=O)[C@H](CCCN)NC(=O)[C@H](CC(=O)O)NC(=O)[C@H](CC(C)C)NC(=O)[C@](C)(CC(C)C)NC(=O)[C@@H](NC(=O)[C@H](CO)NC(=O)[C@H](Cc1ccncc1)NC(=O)[C@H](CC(=O)O)NC(=O)[C@H](CO)NC(=O)[C@@H](NC(=O)[C@](C)(Cc1ccccc1)NC(=O)[C@@H](NC(=O)CNC(=O)[C@H](CCC(=O)O)NC(=O)C(C)(C)NC(=O)[C@@H](N)Cc1ccc(O)cc1)[C@@H](C)O)[C@@H](C)O)[C@@H](C)CC)[C@@H](C)CC)[C@@H](C)CC)C(=O)N[C@@H](CO)C(=O)N[C@@H](CO)C(=O)NCC(=O)N[C@@H](C)C(=O)N1CCC[C@H]1C(=O)N1CCC[C@H]1C(=O)N1CCC[C@H]1C(=O)N[C@@H](CO)C(N)=O)C(=O)O` [Example 174], the maximum response (Emax) is 92.2% at hGIPR (setting [3]) and 98.2% at hGLP-1R (HEK293, percent of maximal response to GLP-1(7-36)NH2, 37° C., 0.1% bovine casein, arithmetic mean, read-out: hGLP-1R Emax, % ± SEM). Further, the EC50 at hGCGR (setting [5]) was over 9950 nM.
